# Reference: article PMC3264828 (European Journal of Medicinal Chemistry, 2011)
# What was measured:
# [1] = system: D1; conditions: 2-substituted DHX analogues; cited from earlier work
# [2] = biological target: D1 dopamine receptor mutant L190A (Homo sapiens, UniProt P21728, L190A); assay: Mutagenesis experiments of the D1 dopamine receptor; assay type: binding; conditions: residue in extracellular loop 2; to be published elsewhere
# [3] = biological target: D1-like receptors (Sus scrofa, UniProt P50130); assay: Competition binding with [3H]SCH-23390 in porcine striatal homogenates; conditions: porcine striatal preparations; for decrease in D1 affinity compared to 2: relative to DOX (2)
# Sequence of D1-like receptors (Sus scrofa, UniProt P50130) (P50130 whole entry): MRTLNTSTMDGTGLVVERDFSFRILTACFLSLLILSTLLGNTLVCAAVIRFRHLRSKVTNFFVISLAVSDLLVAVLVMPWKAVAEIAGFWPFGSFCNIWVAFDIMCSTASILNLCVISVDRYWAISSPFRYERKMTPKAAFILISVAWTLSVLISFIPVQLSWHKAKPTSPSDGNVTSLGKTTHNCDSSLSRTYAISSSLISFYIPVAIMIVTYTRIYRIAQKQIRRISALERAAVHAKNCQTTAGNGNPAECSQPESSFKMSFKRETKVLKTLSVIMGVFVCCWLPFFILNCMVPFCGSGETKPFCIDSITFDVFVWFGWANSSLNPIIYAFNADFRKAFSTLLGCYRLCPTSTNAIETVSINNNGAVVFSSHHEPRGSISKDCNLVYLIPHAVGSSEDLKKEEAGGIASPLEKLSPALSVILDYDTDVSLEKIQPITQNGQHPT
# [4] = system: prefrontal cortex; conditions: cited from earlier work
# [5] = system: D1-like receptors; conditions: cited from earlier work
# [6] = system: D1 receptor; conditions: cited from earlier work
# [7] = system: in vivo model of Parkinson's disease; conditions: African green monkeys; cited from earlier work
# [8] = system: aged monkeys; conditions: cited from earlier work
# Sequence of D1 dopamine receptor mutant L190A (P21728 whole entry L190A): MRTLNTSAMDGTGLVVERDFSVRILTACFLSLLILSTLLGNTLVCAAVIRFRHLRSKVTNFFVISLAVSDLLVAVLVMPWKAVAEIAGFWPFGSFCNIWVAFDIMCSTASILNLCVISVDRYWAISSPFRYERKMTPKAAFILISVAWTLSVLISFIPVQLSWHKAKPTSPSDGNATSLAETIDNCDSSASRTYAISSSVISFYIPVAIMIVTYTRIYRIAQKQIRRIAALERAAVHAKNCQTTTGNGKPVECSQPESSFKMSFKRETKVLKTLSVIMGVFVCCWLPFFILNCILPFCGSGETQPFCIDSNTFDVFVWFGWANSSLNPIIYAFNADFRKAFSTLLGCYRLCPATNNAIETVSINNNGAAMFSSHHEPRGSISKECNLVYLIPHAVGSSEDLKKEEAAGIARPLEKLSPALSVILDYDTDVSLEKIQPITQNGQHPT
smiles,measurement,setting,value
Cc1ccc2c(c1)[C@@H]1c3cc(O)c(O)cc3CC[C@H]1NC2 [compound 3],D1 affinity in comparison to DHX,[1],did not significantly reduce the affinity
same,affinity at mutant L190A of the D1 dopamine receptor,[2],but not for 3
"Cc1ccc2c(c1)[C@@H]1c3cc(O)c(O)cc3OC[C@H]1NC2.Cl (racemic) [5a, (±)-Trans-11-methyl-2,3-dihydroxy-6a,7,8,12b-tetrahydro-6H-chromeno[3,4-c]isoquinoline hydrobromide]",affinity at mutant L190A of the D1 dopamine receptor,[2],significantly increased affinity
same,decrease in D1 affinity compared to 2,[3],nearly six-fold decrease
"Oc1cc2c(cc1O)[C@H]1c3ccccc3CN[C@@H]1CC2 (relative stereo) [compound 1, trans-10,11-dihydroxy-5,6,6a,7,8,12b-hexahydrobenzo[a]phenanthridine]",blood flow in the prefrontal cortex,[4],increase blood flow in the prefrontal cortex
same,affinity for D1-like receptors over D2-like receptors,[5],ten-fold higher affinity
same,dopamine D1 agonist character,[6],potent dopamine D1 full agonist
same,therapeutic potential in an in vivo model of Parkinson's disease,[7],significant therapeutic potential
same,working memory,[8],improve working memory in aged monkeys
CCc1ccc2c(c1)[C@@H]1c3cc(O)c(O)cc3CC[C@H]1NC2 [compound 4],D1 affinity in comparison to DHX,[1],affinity lower than the unsubstituted compound
"Cl.Oc1cc2c(cc1O)[C@H]1c3cc(C(F)(F)F)ccc3CN[C@@H]1CO2 (racemic) [5d, (±)-Trans-2,3-dihydroxy-11-trifluoromethyl-6a,7,8,12b-tetrahydro-6H-chromeno[3,4-c]isoquinoline hydrochloride]",decrease in D1 affinity compared to the methyl substituted compound 5a,[3]; relative to 5a,almost four-fold decrease
same,decrease in D1 affinity compared to 2,[3],22 fold
"Oc1cc2c(cc1O)C1c3ccccc3CNC1CO2 (single isomer, unassigned; (+)) [(+)-2]",efficacy for activation of the D1 receptor,[6]; compared with dopamine,higher efficacy than dopamine
